Data on 2 compounds can be found in US20250134102A1, “USE OF FLAVONOID GLYCOSIDE IN RESISTANCE OF WEEDS IN RICE” (INSTITUTE OF BOTANY, THE CHINESE ACADEMY OF SCIENCE, priority 2021, published 2025).

One test deals with Echinochloa crus-galli. Nature of the test: External application of the compound to Echinochloa crus-galli seeds on agar medium, radicle and embryo length. The test is classed as in vivo. The note with it: 500 mg/L in 0.8% agar, 28° C., 3 days in the dark, 3 biological repeats. The procedure: I. Procedures for External Application of the Compound to Lettuce and Echinochloa crus-galli Compounds to be tested: isoorientin and isoorientin-2″-O-glucopyranoside. (1) The compounds to be tested were dried into powder with a centrifugal concentrator and weighed, a proper amount of sterile water was added to make its final concentration to be 10 mg/mL. (2) 500 mL of 0.8% agar was prepared and sterilized in an autoclave. […] solution of the compounds to be tested at a concentration of 10 mg/mL were added to make the final concentration of the compounds to be 500 mg/L. The medium containing the compound to be tested was quickly poured into a 10 cm×10 cm square dish, and the square dish was shaken quickly so that the medium was evenly spread in the square dish. The medium added with equal amount of sterile water was used as control. (4) The seeds of Echinochloa crus-galli were washed with distilled water for several times, and then placed on sterile filter paper to dry. (5) After the medium had solidified, the seeds of Echinochloa crus-galli were placed with sterile tweezers on the medium, and 26 seeds were placed in each petri dish (2 rows, with 13 seeds in each row). Each treatment had 3 biological repeats. (6) The petri dishes were placed in an incubator at 28° C. for 3 days in the dark. (7) Phenotypic statistics: after 3 days, the length of radicle and embryo of each treated material were counted.

Test [1] has as its system Os02g0589400 recombinant protein. As to the kind of experiment: In vitro enzymatic activity of Os02g0589400 (glycosylation of isoorientin with UDPG, UPLC-QTOF/MS). Type of test: biochemical, Oryza sativa L. ssp. japonica cv. Zhonghua 11 (ZH11). The note with it: glycosyl donor UDPG, Tris-HCl pH 7.0, 30° C., 1 hour. The procedure: The enzymatic activity reaction system was: 38 μL of Tris-HCl (pH 7.0, 50 mM, containing 10 mM DTT), 1 μL of 10 mM glycosyl receptor (the glycosyl receptor of Os02g0589400 is isoorientin), 1 μL of 100 mM glycosyl donor (UDPG), and 10 μL of 2.03 μg/μL of recombinant protein of Os02g0589400 obtained in (2). React in water bath at 30° C. for 1 hour, and then stop the reaction with equal volume of methanol. A sample containing protein obtained from E. coli into which a pMAL-c2X mock vector was transferred according to the above step (2) was taken as the negative control. Centrifuge at 12,000 rpm, 4° C. for 10 min, 30 μL of the resulting supernatant was taken and measured by UPLC-QTOF/MS, and the measuring method was the same as that shown in Example 1.

As for `O=c1cc(-c2ccc(O)c(O)c2)oc2cc(O)c([C@@H]3O[C@H](CO)[C@@H](O)[C@H](O)[C@H]3O[C@@H]3O[C@H](CO)[C@@H](O)[C@H](O)[C@H]3O)c(O)c12` [isoorientin-2″-O-glucopyranoside], in the test on Echinochloa crus-galli, the “embryo length of Echinochloa crus-galli compared with the control” value is reported as “no significant difference” and the “radicle length of Echinochloa crus-galli compared with the control” value is given as “no significant difference”.

As to `O=c1cc(-c2ccc(O)c(O)c2)oc2cc(O)c([C@@H]3O[C@H](CO)[C@@H](O)[C@H](O)[C@H]3O)c(O)c12` [isoorientin], in the test on Echinochloa crus-galli, the “embryo length of Echinochloa crus-galli compared with the control” value is reported as “no significant difference” and the “radicle length of Echinochloa crus-galli compared with the control” value is recorded as “significantly shortened”. In addition, the “glycosylation of the glycosyl receptor by Os02g0589400 recombinant protein compared with the mock control” value in test [1] was “could catalyze isoorientin to produce isoorientin-2″-O-glucopyranoside”.
